A melting point compilation (Tetko et al.)

Row | melting point [°C] | Compound
1 | 186 to 188 | CC(Cl)C(=O)c1ccc2c(c1)NC(=O)CO2 (stereo unspecified)
2 | 79 to 81 | Cc1ccc(N2N=C(Br)CC2C(=O)O)cc1 (stereo unspecified)
3 | 136 to 138 | CCc1sc(=O)[nH]c1-c1ccccc1
4 | 126 to 128 | Cn1cc(CC(=O)O)c2ccccc21
5 | 61 to 63 | Cc1cc(C)c(C(=O)CCl)c(C)c1C
6 | 123 to 125 | O=C(O)C1CC1[N+](=O)[O-] (stereo unspecified)
7 | 179 to 181 | O=C(Nc1cn[nH]c1)Oc1ccccc1
8 | 155 to 157 | Nc1ncncc1-c1ccccc1
9 | 209 to 211 | O=c1[nH]c2ccc(I)cc2o1
10 | 94 to 96 | O=C1CCN(c2ccccc2)C1
11 | 121 to 123 | CC(C)(C(=O)O)n1cc([N+](=O)[O-])cn1
12 | 223 to 225 | O=C(O)/C=C/c1nc2ccccc2o1
13 | 139 to 141 | Cc1cc(C)n(-c2ccc(C(N)=NO)cn2)n1
14 | 147 to 149 | Nc1nc(C=Cc2ccccc2)cs1
15 | 198 to 200 | NC(=O)NCc1ccncc1
16 | 29 to 31 | O=C(c1ccc(Br)cc1)C(F)(F)F
17 | 299 to 301 | Nc1cn[nH]c(=O)c1Cl
18 | 107 to 109 | Nc1ccc(CC(=O)N2CCCC2)cc1
19 | 148 to 150 | Cn1cnc(-c2ccc(F)cc2)c1N
20 | 140 to 142 | Cc1cccc(-c2nc(C)n[nH]2)c1
21 | 171 to 173 | O=C(O)c1ccc(OC2CCCC2)cc1
22 | 119 to 121 | O=C(O)CCNS(=O)(=O)c1c(Cl)cccc1Cl
23 | 56 to 58 | O=C(O)C=C1CCSCC1
24 | 66 to 68 | C=CCn1nnnc1S

Row | melting point [°C] | Compound
25 | 69 to 71 | NC(=S)Cc1cccc(F)c1
26 | 164 to 166 | CCOc1ccc(NC(N)=S)cc1
27 | 162 to 164 | COc1ccccc1NC(=O)c1ccc(N)cc1
28 | 118 to 120 | O=C(O)Cc1csc(N2CCCC2=O)n1
29 | 95 to 97 | O=C(O)C1CSc2ccccc21 (stereo unspecified)
30 | 56 to 58 | CC(Cc1ccccc1Cl)C(=O)O (stereo unspecified)
31 | 193 to 197 | O=C(O)c1cc(-c2ccc(F)cc2)nc2ccccc12
32 | 95 to 97 | COc1ccc(S(=O)(=O)Cl)c2ccccc12
33 | 215 to 217 | Cc1sc2nc(C(C)Cl)[nH]c(=O)c2c1C (stereo unspecified)
34 | 111 to 113 | NS(=O)(=O)CCC(=O)O
35 | 228 to 232 | Cc1ccc2c(c1C)NC(=O)C2=O
36 | 159 to 161 | Cn1c(O)c([N+](=O)[O-])c(=O)c2ccccc21
37 | 169 to 171 | N#Cc1cccn2ccnc12
38 | 271 to 273 | Cc1ccc2c(Cl)c(C(=O)O)sc2c1
39 | 104 to 106 | CSc1ccc(Cl)nn1
40 | 158 to 160 | Cc1cc(Oc2ncccc2C#N)ccc1N
41 | 125 to 127 | Nc1ccc(SCc2cccnc2)cc1
42 | 295 to 297 | O=C(O)c1ccc2c(c1)C(=O)N(c1ccc(F)cc1)C2=O
43 | 207 to 209 | CC1CCN(S(=O)(=O)c2ccc(C(=O)O)s2)CC1
44 | 70 to 74 | CN(CCC#N)c1ccc(C=O)cc1
45 | 64 to 66 | O=C(O)CSc1ccc2c(c1)CCC2
46 | 152 to 154 | O=C(O)C1CCN(c2ccc(Cl)cn2)CC1
47 | 68 to 70 | O=Cc1ccc(-n2ccc(C(F)(F)F)n2)cc1
48 | 288 to 290 | Cc1n[nH]c(C(=O)O)c1C

Row | melting point [°C] | Compound
49 | 212 to 214 | Cn1ncc2c(=O)n(CCC(=O)O)cnc21
50 | 354 to 356 | O=C(O)c1ccc(-c2noc(=O)[nH]2)cc1
51 | 204 to 206 | O=C(O)c1cnn(-c2cccc(Cl)c2)c1
52 | 189 to 191 | Sc1nncn1C1CC1
53 | 90 to 92 | O=S(=O)(Cl)c1ccc(Cl)c2ccccc12
54 | 185 to 187 | N#Cc1ccc(C(=O)NNC(=O)CCl)cc1
55 | 63 to 67 | O=C1CCCCCN1CO
56 | 180 to 182 | O=C(NC1CC1)c1cc([N+](=O)[O-])ccc1Cl
57 | 186 to 188 | N#Cc1c(F)cccc1Oc1ccc(C(=O)O)cc1
58 | 148 to 150 | Nc1ccc(N2CCCC2)cc1C(=O)O
59 | 205 to 207 | Cc1cc(O)cc(C(=O)O)c1
60 | 135 to 139 | O=C(O)CCNC(=O)c1ccco1
61 | 143 to 145 | Nc1nonc1-c1ccc(Cl)c(Cl)c1
62 | 68 to 70 | Cc1cc(N)n(Cc2ccccc2)n1
63 | 92 to 94 | COc1cc(Br)c(S(=O)(=O)Cl)cc1OC
64 | 203 to 205 | COc1cc(S(N)(=O)=O)c(OC)cc1N
65 | 178 to 180 | CCc1cccc2c(C(=O)CC#N)c[nH]c12
66 | 68 to 70 | Brc1ccccc1Oc1ccncc1
67 | 242 to 244 | O=C(O)C1CCCN1Cc1ccc(F)cc1 (stereo unspecified)
68 | 179 to 181 | NS(=O)(=O)c1ccc(OCc2ccccc2Cl)cc1
69 | 77 to 79 | COc1ncc(C)cc1N
70 | 189 to 191 | O=C(O)[C@@H]1CC(O)CN1C(=O)OCC1c2ccccc2-c2ccccc21 (stereo partly specified)
71 | 65 to 66 | CC1CCC(C(C)C)C(OC(=O)CCl)C1 (stereo unspecified)
72 | 71 to 73 | NCc1cc(OCC(F)F)ccn1

Row | melting point [°C] | Compound
73 | 144 to 146 | CC(CS(=O)(=O)c1ccc(Br)cc1)C(=O)O (stereo unspecified)
74 | 44 to 46 | Cc1cccc(CNCc2cccc(C)n2)n1
75 | 189 to 191 | ClC1=Nc2c(cnn2-c2ccccc2)CN1
76 | 199 to 201 | O=C(O)c1cc2c(s1)CCC2
77 | 39 to 41 | CCOC(=O)C(=O)NN
78 | 99 to 101 | Cc1cccc(-n2c(C)cc(C(=O)CCl)c2C)c1
79 | 76 to 78 | O=C(CCl)Nc1ccnn1C1CCCC1
80 | 87 to 90 | COc1ccccc1NC(=O)CC#N
81 | 125 to 127 | Cc1nn(C)c(C)c1CC(C)C(=O)O (stereo unspecified)
82 | 224 to 226 | Cc1csc(NCC(=O)O)n1
83 | 187 to 189 | CCCOc1ccc(C=CC(=O)O)cc1OC
84 | 380 to 382 | O=C1OCCc2cc3c(=O)[nH]c(=O)[nH]c3nc21
85 | 209 to 211 | O=C(O)c1cc(C2CC2)nc2c1cnn2Cc1ccccc1
86 | 197 to 199 | COc1ncnc(N)c1C=O
87 | 107 to 109 | Cc1ccc(-c2nn(Cc3ccccc3)cc2/C=C/C(=O)O)cc1
88 | 123 to 125 | Nc1cccc(C(=O)Nc2cccc(F)c2)c1
89 | 192 to 194 | O=C(CC1CCCCC1)Nc1cccc2c1CCCN2
90 | 42 to 44 | COC(C#N)c1ccc([N+](=O)[O-])cc1 (stereo unspecified)
91 | 92 to 94 | Cc1ccn(-c2cc(CO)ccn2)n1
92 | 168 to 170 | O=C(c1ccc(O)cc1)N1CCCC1
93 | 54 to 56 | CC(C)(C#N)C(=O)O
94 | 148 to 150 | Cc1nn(CCO)c(C(F)F)c1C(=O)O
95 | 131 to 133 | CCOC(=O)/C(C#N)=C\Nc1cc(OC)ccc1OC
96 | 160 to 162 | O=c1cc(CCl)c2ccc(Br)cc2o1

Row | melting point [°C] | Compound
97 | 289 to 291 | CC1C(=O)Nc2cc(C(=O)O)ccc2N1C (stereo unspecified)
98 | 124 to 126 | CN(C)C(=O)c1ccccc1C(=O)O
99 | 162 to 164 | Cc1n[nH]c(C)c1-c1ccccc1N
100 | 49 to 51 | O=C(O)CCn1ccc2ccccc21
101 | 198 to 200 | CCOC(=O)c1cc(C)nc2c(C(N)=O)cnn12
102 | 56 to 58 | CC(C)(C)OC(=O)C1CCN(C(=O)OCc2ccccc2)CC1
103 | 119 to 121 | COC(=O)c1ccc(C)c(O)c1
104 | 119 to 121 | Nc1cccn(Cc2ccccc2)c1=O
105 | 180 to 182 | Cc1cc(C(=O)CCl)c(C)n1-c1ncn[nH]1
106 | 164 to 166 | CC(NC(N)=S)c1ccc(Cl)cc1Cl (stereo unspecified)
107 | 127 to 129 | CCOC(=O)C(C)NC(=O)c1ccc(N)cc1 (stereo unspecified)
108 | 153 to 155 | O=C(CCl)NC(Cc1c[nH]c2ccccc12)C(=O)O (stereo unspecified)
109 | 129 to 131 | CSc1ccc(NC(=O)C(C)Cl)cc1 (stereo unspecified)
110 | 188 to 190 | Cc1c(C(=O)O)nnn1-c1cccc2cccnc12
111 | 144 to 148 | COc1cn(-c2ccccc2)nc1C(=O)O
112 | 108 to 110 | COC(=O)N(C)c1ccc([N+](=O)[O-])cc1
113 | 62 to 64 | NNc1cccc(C(F)(F)F)n1
114 | 193 to 195 | CC(C)NC(=O)Nc1ccc(C#N)cc1
115 | 149 to 151 | CNC(=O)c1cccc(NC(=O)C(C)Cl)c1 (stereo unspecified)
116 | 112 to 114 | Nc1cc(-n2nnnc2C2CC2)ccc1F
117 | 120 to 122 | O=C(O)c1ccccc1SC(F)(F)F
118 | 94 to 96 | NCCCN1CCC(C(N)=O)CC1
119 | 175 to 177 | CN(CC(=O)O)S(=O)(=O)c1cccnc1
120 | 49 to 51 | CC1(C)CCC(C)(O)CC1

Row | melting point [°C] | Compound
121 | 229 to 231 | Cc1oncc1C(=O)Nc1ccc(C(=O)O)cc1
122 | 109 to 111 | O=C(O)C(Sc1ccc(F)cc1F)c1ccccc1 (stereo unspecified)
123 | 111 to 113 | CN(C)S(=O)(=O)c1ccc2c(c1)CCN2
124 | 129 to 131 | Cc1cc(C(=O)O)ncn1
125 | 209 to 211 | CN1N=C(c2ccncc2)CC1=O
126 | 131 to 133 | C/C(=N\O)c1sc(C)nc1C
127 | 205 to 207 | CCOC(=O)c1snc(C(N)=O)c1N
128 | 222 to 224 | O=C(O)c1ccc(-c2cccc(Cl)c2)s1
129 | 158 to 160 | Cc1nnc2n1CC(CO)CC2 (stereo unspecified)
130 | 157 to 159 | O=C(O)C1CC(=O)N(c2ccc(S(=O)(=O)Cl)cc2)C1 (stereo unspecified)
131 | 214 to 216 | NC(CSCCOc1ccccc1)C(=O)O (stereo unspecified)
132 | 249 to 251 | NC(=O)c1cccc(C(=O)O)n1
133 | 30 to 32 | OCc1cc(Br)cs1
134 | 114 to 116 | N#CCS(=O)(=O)c1cc(Cl)ccc1Cl
135 | 158 to 160 | O=C(O)CNC(=O)c1ccc2c(c1)OCO2
136 | 100 to 102 | O=Cc1ccc(Sc2ncccn2)c([N+](=O)[O-])c1
137 | 232 to 234 | Cc1cc(C(=O)O)c(C)n1-c1ccc(F)cc1
138 | 138 to 140 | O=Cc1cc(Br)ccc1OCc1ccccn1
139 | 217 to 219 | CC(Oc1ccc(-c2nc3ccccc3s2)cc1)C(=O)O (stereo unspecified)
140 | 156 to 158 | O=C(O)C1CCN(S(=O)(=O)c2ccccc2)CC1
141 | 57 to 59 | CS(=O)CCC(=O)O (stereo unspecified)

Row | Compound | melting point [°C]
142 | CC(C)c1c(C(=O)O)cnn1Cc1ccccc1 | 153 to 155
143 | NCC(O)c1ccc(OC(F)F)cc1 (stereo unspecified) | 54 to 56
144 | O=C(CCl)NC1CCCC1 | 73 to 75
145 | Cc1nn(Cc2ccc(Cl)cc2)c(C)c1C(=O)O | 188 to 190
146 | O=C1CC(C2CC2)CN1 (stereo unspecified) | 99 to 101
